Patent US20140205631A1, “Stimulation of vaccination by angiotensin peptides” (University of Southern California, priority 2013, published 2014)

Assays:
[1] = test system: FIV-p24 antigen; test: Oral secretion SIgA antibody titers (ELISA) after vaccination of cats; type: in vivo, feline immunodeficiency virus (FIV)
Protocol: (§1) Animals: Eleven (11) female outbred cats>24 weeks old that were free of FIV, feline leukemia virus (FeLV) and feline infectious peritonitis virus were employed. The animals were restrained for the application of test articles to mucous membranes and collection of blood and mucosal secretions. Sedation, if necessary, was induced by subcutaneous administration of ketamine hydrochloride (22 mg/kg) and acepromazine maleate (0.1 mg/kg). Euthanasia was accomplished with a lethal overdose of barbiturates. All activities were approved by the Institutional Animal Care and Use Committee and supervised by veterinary staff.
(§2) Vaccine Preparation: Fel-O-Vax FIV (Fort Dodge Animal Health, Fort Dodge, Iowa) and A(1-7) was combined in a constant volume of 2% hydroxyethyl cellulose (2% HEC). The range of concentrations of A(1-7) ranged from 0 to 10 mg/mL with a constant 0.33 mL of Fel-O-Vax FIV suspended in each mL of the gel applied for vaccination purposes. Two control animals received intramuscular Fel-O-Vax FIV at baseline, week 3 and week 5. One control animal had mucosal vaccination with Fel-O-Vax alone suspended in the 2% HEC without A(1-7) and one control animal received intramuscular Fel-O-Vax FIV with 0.3 mg/kg of A(1-7) at baseline, week 3 and week 5.
(§3) Delivery of angiotensin(1-7) and FIV vaccine to mucosal surfaces: 2% HEC, a viscous gel, was used as the vehicle for the topical delivery of angiotensin(1-7) and FIV vaccine. The topical vaccine was applied to the mucosal surface weekly for 6 consecutive weeks. 1.0 mL was applied to the muzzle for oral mucosal vaccination and 1.0 mL and 0.2 mL was instilled in the rectal and vaginal vaults, respectively for mucosal vaccination at these sites.
(§4) Measurement of Local Immune Response: The Weck-Cel Surgical Spear (Windsor Biomedical, Newton, N.H.) was used to obtain secretions. Once inserted, the sponge is allowed to remain in place for 5 minutes. The secretions were extracted by centrifugation with 300 μL of a buffer solution. The buffer solution is prepared by mixing 50 μL of 100× protease inhibitor cocktail and 250 μL of 10% Igepal (Sigma, St Louis, Mo., U.S.A.) with 4.7 ml of phosphate-buffered saline (PBS) containing 0.25% bovine serum albumin (BSA, Fraction V; Sigma). The 100× protease inhibitor cocktail contains 100 μg/mL aprotinin, 500 μg/mL leupeptin, 100 μg/mL bestatin (all Sigma), and 50 μg/mL 4-(2-Aminoethyl)-benzenesulfonyl fluoride hydrochloride (Roche Applied Sciences, U.S.A.) in phosphate buffered saline.
(§5) The local immune response in mucosal secretions was evaluated against the homologous FIV-p24 antigen (Cell Biolabs, Inc, San Diego, Calif.) or the heterologous HIV-gp120 antigen (ImmunoDiagnostics, Inc, Woburn, Mass.). Plates were prepared with 50 ng/mL FIV-p24 antigen or with 500 ng/mL HIV-gp120 antigen (Bachem Americans, Inc, Torrance, Calif.) incubated over night at 4° C., washed and the target sample added and incubated overnight again at 4° C. The plates were washed and the indicator goat anti-feline IgG (Accurate Chemical & Scientific Corp., Westbury, N.Y., working titer 1:10,000) or goat anti-feline IgA (Accurate Chemical & Scientific Corp., Westbury, N.Y., working titer 1:1,000) added and incubated for 24 hours at 4° C. Following a final wash, substrate solution was added. The stop solution was added after 15 minutes for the IgG reaction and after 30 minutes for the IgA reaction. Plates were read at 450 nm.

[2] = test system: mucosal SIgA antibody production; test: Local (mucosal) secretory IgA immune response after vaccination of cats, general statements; type: in vivo
Protocol: as §1
Vaccine Preparation: Fel-O-Vax FIV (Fort Dodge Animal Health, Fort Dodge, Iowa) and A(1-7) was combined in a constant volume of 2% hydroxyethyl cellulose (2% HEC). The range of concentrations of A(1-7) ranged from 0 to 10 mg/mL with a constant 0.33 mL of Fel-O-Vax FIV suspended in each mL of the gel applied for vaccination purposes. Two control animals received intramuscular Fel-O-Vax FIV at baseline, week 3 and week 5. […]
The local immune response in mucosal secretions was evaluated against the homologous FIV-p24 antigen (Cell Biolabs, Inc, San Diego, Calif.) or the heterologous HIV-gp120 antigen (ImmunoDiagnostics, Inc, Woburn, Mass.). […] Plates were read at 450 nm.

[3] = test system: FIV-p24 antigen; test: Vaginal secretion SIgA antibody titers (ELISA) after vaccination of cats; type: in vivo, feline immunodeficiency virus (FIV); conditions: for SIgA Anti-FIV-p24: vaginal, lowest dilution Undilute
Protocol: as §1, §2, §3, §4, §5

[4] = test system: HIV-gp120 antigen; test: Vaginal secretion IgG antibody titers (ELISA) after vaccination of cats; type: in vivo, human immunodeficiency virus (HIV); conditions: for IgG Anti-HIV gp120: vaginal, Week 8, lowest dilution 1:4, elution factor 300-fold
Protocol: as §1, §2, §3, §4, §5

Substance: Asp-Arg-Val-Tyr-Ile-His-Pro (DRVYIHP) [A(1-7)]
- SIgA Anti-FIV-p24 ([1]; IM Fel-O-Vax FIV + 0.3 mg/kg A(1-7), Week 2, lowest dilution Undilute): Negative
- SIgA Anti-FIV-p24 ([1]; IM Fel-O-Vax FIV + 0.3 mg/kg A(1-7), Week 4, lowest dilution Undilute): Undilute
- SIgA Anti-FIV-p24 ([1]; IM Fel-O-Vax FIV + 0.3 mg/kg A(1-7), Week 8, lowest dilution Undilute): Undilute
- SIgA Anti-FIV-p24 ([1]; topical Fel-O-Vax FIV + 0.1 A(1-7) in 2% HEC, Week 2, lowest dilution Undilute): Negative
- SIgA Anti-FIV-p24 ([1]; topical Fel-O-Vax FIV + 0.1 A(1-7) in 2% HEC, Week 4, lowest dilution Undilute): Negative
- SIgA Anti-FIV-p24 ([1]; topical Fel-O-Vax FIV + 0.1 A(1-7) in 2% HEC, Week 6, lowest dilution Undilute): Undilute
- SIgA Anti-FIV-p24 ([1]; topical Fel-O-Vax FIV + 0.1 A(1-7) in 2% HEC, Week 8, lowest dilution Undilute): Negative
- SIgA Anti-FIV-p24 ([1]; topical Fel-O-Vax FIV + 0.2 A(1-7) in 2% HEC, Week 2, lowest dilution Undilute): Negative
- SIgA Anti-FIV-p24 ([1]; topical Fel-O-Vax FIV + 0.2 A(1-7) in 2% HEC, Week 4, lowest dilution Undilute): Negative
- SIgA Anti-FIV-p24 ([1]; topical Fel-O-Vax FIV + 0.2 A(1-7) in 2% HEC, Week 6, lowest dilution Undilute): Negative
- SIgA Anti-FIV-p24 ([1]; topical Fel-O-Vax FIV + 0.2 A(1-7) in 2% HEC, Week 8, lowest dilution Undilute): Negative
- SIgA Anti-FIV-p24 ([1]; topical Fel-O-Vax FIV + 0.3 A(1-7) in 2% HEC, Week 2, lowest dilution Undilute): Negative
- SIgA Anti-FIV-p24 ([1]; topical Fel-O-Vax FIV + 0.3 A(1-7) in 2% HEC, Week 4, lowest dilution Undilute): Negative
- SIgA Anti-FIV-p24 ([1]; topical Fel-O-Vax FIV + 0.3 A(1-7) in 2% HEC, Week 6, lowest dilution Undilute): Negative
- SIgA Anti-FIV-p24 ([1]; topical Fel-O-Vax FIV + 0.3 A(1-7) in 2% HEC, Week 8, lowest dilution Undilute): Negative
- SIgA Anti-FIV-p24 ([1]; topical Fel-O-Vax FIV + 0.4 A(1-7) in 2% HEC, Week 4, lowest dilution Undilute): Undilute
- SIgA Anti-FIV-p24 ([1]; topical Fel-O-Vax FIV + 0.4 A(1-7) in 2% HEC, Week 6, lowest dilution Undilute): Negative
- SIgA Anti-FIV-p24 ([1]; topical Fel-O-Vax FIV + 5.0 A(1-7) in 2% HEC, Week 2, lowest dilution Undilute): Undilute
- SIgA Anti-FIV-p24 ([1]; topical Fel-O-Vax FIV + 7.5 A(1-7) in 2% HEC, Week 4, lowest dilution Undilute): Negative
- SIgA Anti-FIV-p24 ([1]; topical Fel-O-Vax FIV + 10.0 A(1-7) in 2% HEC, Week 2, lowest dilution Undilute): Negative
- SIgA Anti-FIV-p24 ([1]; topical Fel-O-Vax FIV + 10.0 A(1-7) in 2% HEC, Week 4, lowest dilution Undilute): Negative
- SIgA Anti-FIV-p24 ([1]; topical Fel-O-Vax FIV + 10.0 A(1-7) in 2% HEC, Week 6, lowest dilution Undilute): Negative
- SIgA Anti-FIV-p24 ([1]; topical Fel-O-Vax FIV + 10.0 A(1-7) in 2% HEC, Week 8, lowest dilution Undilute): Negative
- local secretory IgA immune responses ([2]; angiotensin (1-7) co-administered with killed FIV (Fel-O-Vax FIV) vaccine): dramatic increase
- induction of SIgA antibody production at the mucosal surface ([2]; following A(1-7)+FIV immunization, two month period of observation): sustained
- SIgA against FIV-p24 in vaginal secretions ([3]; Topical application of FIV antigen with A(1-7)): only low levels
- SIgA Anti-FIV-p24 ([3]; IM Fel-O-Vax FIV + 0.3 mg/kg A(1-7), Week 2): Negative
- SIgA Anti-FIV-p24 ([3]; IM Fel-O-Vax FIV + 0.3 mg/kg A(1-7), Week 4): Undilute
- SIgA Anti-FIV-p24 ([3]; IM Fel-O-Vax FIV + 0.3 mg/kg A(1-7), Week 6): Undilute
- SIgA Anti-FIV-p24 ([3]; topical Fel-O-Vax FIV + 0.1 A(1-7) in 2% HEC, Week 2): Undilute
- SIgA Anti-FIV-p24 ([3]; topical Fel-O-Vax FIV + 0.1 A(1-7) in 2% HEC, Week 4): Undilute
- SIgA Anti-FIV-p24 ([3]; topical Fel-O-Vax FIV + 0.2 A(1-7) in 2% HEC, Week 2): Undilute
- SIgA Anti-FIV-p24 ([3]; topical Fel-O-Vax FIV + 0.2 A(1-7) in 2% HEC, Week 8): Undilute
- SIgA Anti-FIV-p24 ([3]; topical Fel-O-Vax FIV + 0.3 A(1-7) in 2% HEC, Week 6): Undilute
- SIgA Anti-FIV-p24 ([3]; topical Fel-O-Vax FIV + 0.3 A(1-7) in 2% HEC, Week 8): Negative
- SIgA Anti-FIV-p24 ([3]; topical Fel-O-Vax FIV + 5.0 A(1-7) in 2% HEC, Week 2): Negative
- SIgA Anti-FIV-p24 ([3]; topical Fel-O-Vax FIV + 5.0 A(1-7) in 2% HEC, Week 4): Negative
- SIgA Anti-FIV-p24 ([3]; topical Fel-O-Vax FIV + 5.0 A(1-7) in 2% HEC, Week 6): Negative
- SIgA Anti-FIV-p24 ([3]; topical Fel-O-Vax FIV + 5.0 A(1-7) in 2% HEC, Week 8): Negative
- SIgA Anti-FIV-p24 ([3]; topical Fel-O-Vax FIV + 7.5 A(1-7) in 2% HEC, Week 2): Negative
- SIgA Anti-FIV-p24 ([3]; topical Fel-O-Vax FIV + 7.5 A(1-7) in 2% HEC, Week 4): Negative
- SIgA Anti-FIV-p24 ([3]; topical Fel-O-Vax FIV + 7.5 A(1-7) in 2% HEC, Week 6): Negative
- SIgA Anti-FIV-p24 ([3]; topical Fel-O-Vax FIV + 7.5 A(1-7) in 2% HEC, Week 8): Negative
- SIgA Anti-FIV-p24 ([3]; topical Fel-O-Vax FIV + 10.0 A(1-7) in 2% HEC, Week 2): Negative
- SIgA Anti-FIV-p24 ([3]; topical Fel-O-Vax FIV + 10.0 A(1-7) in 2% HEC, Week 6): Negative
- SIgA Anti-FIV-p24 ([3]; topical Fel-O-Vax FIV + 10.0 A(1-7) in 2% HEC, Week 8): Negative
- IgG antibody induction in vaginal secretions ([4]; topical, higher dose levels of A(1-7)): declined
- IgG anti-HIV-gp120 antibodies in vaginal secretions ([4]; topical, lower dose levels of A(1-7)): also elicited
- IgG Anti-HIV gp120 ([4]; topical Fel-O-Vax FIV + 0.1 A(1-7) in 2% HEC): Negative
- IgG Anti-HIV gp120 ([4]; topical Fel-O-Vax FIV + 5.0 A(1-7) in 2% HEC): Negative
- IgG Anti-HIV gp120 ([4]; topical Fel-O-Vax FIV + 7.5 A(1-7) in 2% HEC): Negative
- IgG Anti-HIV gp120 ([4]; topical Fel-O-Vax FIV + 10.0 A(1-7) in 2% HEC): Negative
